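Five compound concentrations were applied to cells in 96-well plates for 48 hours; endpoints were derived by simple linear interpolation of the resulting dose-response curve. Abbreviation: GI50, concentration required for 50% inhibition of growth.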 The source made the active and inactive calls. No stated cut-off is given here; in the data, active = GI50 up to about 1.1 µM and inactive = higher.
How the values were obtained:
Assay in all cases: NCI-60 cell line screen, 48 h
MCF7 = system: MCF7
SW-620 = system: SW-620
DU-145 = system: DU-145
SNB-19 = system: SNB-19
HCC 2998 = system: HCC 2998
NCI-H460 = system: NCI-H460
KM12 = system: KM12
NCI-H226 = system: NCI-H226
SF-295 = system: SF-295
OVCAR-5 = system: OVCAR-5
MOLT-4 = system: MOLT-4
UACC-62 = system: UACC-62
CCRF-CEM = system: CCRF-CEM
NCI-H522 = system: NCI-H522
ACHN = system: ACHN
EKVX = system: EKVX
A549 = system: A549
BT-549 = system: BT-549
NCI-H23 = system: NCI-H23
HOP-62 = system: HOP-62

Measured: GI50

CC(=O)NC1c2ccccc2C(C)(C)C12CCC1(CC2)OCCO1 (stereo not given)
inactive: MCF7 > 100 µM | SW-620 > 100 µM | DU-145 > 100 µM | SNB-19 > 100 µM | HCC 2998 > 100 µM | NCI-H460 > 10 µM | KM12 > 100 µM | NCI-H226 > 100 µM | SF-295 > 100 µM | OVCAR-5 > 100 µM | MOLT-4 > 100 µM | UACC-62 > 100 µM | CCRF-CEM > 100 µM | NCI-H522 > 100 µM | ACHN > 100 µM | EKVX > 100 µM | A549 > 100 µM | BT-549 > 100 µM | NCI-H23 > 100 µM | HOP-62 > 100 µM

CCOP1(=O)CC(C)=C(Cl)C(OC)C1 (stereo not given)
inactive: MCF7 > 100 µM | SW-620 > 100 µM | DU-145 > 100 µM | SNB-19 > 100 µM | HCC 2998 > 100 µM | NCI-H460 > 100 µM | KM12 > 100 µM | NCI-H226 > 100 µM | SF-295 > 100 µM | OVCAR-5 > 100 µM | MOLT-4 > 100 µM | UACC-62 > 100 µM | CCRF-CEM 30.1 µM | NCI-H522 34 µM | ACHN > 100 µM | EKVX > 100 µM | A549 > 100 µM | BT-549 > 100 µM | NCI-H23 > 100 µM | HOP-62 > 100 µM

C[Si](C)(C)C#CCOC=C1CC1
inactive: MCF7 > 100 µM | SW-620 > 100 µM | DU-145 > 100 µM | SNB-19 > 100 µM | HCC 2998 > 100 µM | NCI-H460 > 100 µM | KM12 > 100 µM | NCI-H226 > 100 µM | SF-295 > 100 µM | OVCAR-5 > 100 µM | MOLT-4 > 100 µM | UACC-62 > 100 µM | CCRF-CEM 34.4 µM | NCI-H522 > 100 µM | ACHN > 100 µM | EKVX > 100 µM | A549 > 100 µM | BT-549 > 100 µM | NCI-H23 > 100 µM | HOP-62 > 100 µM

CNc1ccc2nc(-c3ccc(OC(=O)N(C)C)cc3)cn2c1
inactive: MCF7 20.7 µM | SW-620 22.8 µM | DU-145 24.3 µM | SNB-19 16.1 µM | HCC 2998 30.1 µM | NCI-H460 17.5 µM | KM12 17.1 µM | NCI-H226 20.8 µM | SF-295 17.7 µM | OVCAR-5 22.9 µM | MOLT-4 17.8 µM | UACC-62 18.8 µM | CCRF-CEM 12.6 µM | NCI-H522 13.7 µM | ACHN 19.2 µM | EKVX 19.3 µM | A549 16.9 µM | BT-549 17.8 µM | NCI-H23 21.2 µM | HOP-62 18.8 µM

Cc1c2c(c(C)c3c4c(oc13)CCCC4)C=NCC2
inactive: MCF7 16.1 µM | SW-620 21.3 µM | DU-145 15 µM | SNB-19 22.8 µM | HCC 2998 21.1 µM | NCI-H460 15.8 µM | KM12 16.1 µM | NCI-H226 14.2 µM | SF-295 16.1 µM | OVCAR-5 16.8 µM | MOLT-4 7.89 µM | UACC-62 15 µM | CCRF-CEM 12.1 µM | NCI-H522 16 µM | ACHN 15.8 µM | EKVX 12.7 µM | A549 17 µM | BT-549 16.8 µM | NCI-H23 16.2 µM | HOP-62 32.2 µM

CCOC(=O)NC(Nc1ccc(C(=O)O)cc1)(C(F)(F)F)C(F)(F)F
inactive: MCF7 > 100 µM | SW-620 > 100 µM | DU-145 > 100 µM | SNB-19 > 100 µM | HCC 2998 > 100 µM | NCI-H460 > 100 µM | KM12 > 100 µM | NCI-H226 > 100 µM | SF-295 > 100 µM | OVCAR-5 > 100 µM | MOLT-4 > 100 µM | UACC-62 > 100 µM | CCRF-CEM > 100 µM | NCI-H522 > 100 µM | ACHN > 100 µM | EKVX > 100 µM | A549 > 100 µM | BT-549 > 100 µM | NCI-H23 > 100 µM | HOP-62 > 100 µM

Cc1ccc(/C=C2\CN(C)CC3=C2OC(N)=C(C#N)C3c2ccc(C)cc2)cc1 (stereo not given)
inactive: MCF7 18 µM | SW-620 32 µM | DU-145 17.9 µM | SNB-19 26.4 µM | HCC 2998 15.2 µM | NCI-H460 17.9 µM | KM12 15.5 µM | NCI-H226 22.2 µM | SF-295 16.8 µM | OVCAR-5 22.8 µM | MOLT-4 7.76 µM | UACC-62 18.4 µM | CCRF-CEM 4.2 µM | NCI-H522 12.2 µM | ACHN 18.8 µM | EKVX 17.1 µM | A549 14.4 µM | BT-549 16.7 µM | NCI-H23 16 µM | HOP-62 22.7 µM
